Columns and labels:
[1] = Pichia pastoris GS115 expression culture supernatant (methanol induction), purified protein; conditions: 28° C., up to 72 hours
[2] = Pichia pastoris GS115 expression culture supernatant (BMMY medium, methanol induction), purified protein; conditions: 28° C., up to 72 hours

| cleaved bond [2] | Sequence | not cleaved [1] |
| --- | --- | --- |
|  | AIAEPAMIAECKTRTEVFEISRRLIDPTNANFLVWPPCVEVQRCSGCCNNRNVQCRPTQVQLRPVQVRKIEIVRKKPIFKKATVTLEDHLACKCEAVAAARPVA | SDS-PAGE result showed that PDGF-M2 is a single band |
|  | TIAEPAMIAECKTRTEVFEISRRLIDPTNANFLVWPPCVEVQRCSGCCNNRNVQCRPTQVQLRPVQVRKIEIVRKKPIFKKATVTLEDHLACKCEAVAAARPVA | only single band could be detected after the two mutants were reduced (WB) |
| Arg32-Thr33 | TIAEPAMIAECKTRTEVFEISRRLIDRTNANFLVWPPCVEVQRCSGCCNNRNVQCRPTQVQLRPVQVRKIEIVRKKPIFKKATVTLEDHLACKCETVAAARPVT |  |

From US10450358 (dated 2019)
